Assay results as given in patent publication US11028084B2, “Selective inhibitors of gentotoxic steress-induced IKK/NF-κB pathways” (Max-Delbrück-Centrum für Molekulare Medizin in der …, priority 2016, dated 2021).

Legend:
[1] = system: NF-κB DNA binding activity; test: NF-κB DNA binding activity (EMSA) after γ-IR or etoposide, U2OS cells; format: cell-based, human
Description: FIG. 3: (A) U2OS cells were pre-treated with increasing concentrations of MW01 in duplicates in a 384 well plate. Then, cells were treated with etoposide, fixed and subjected to IF of p65. Spatial measurement of p65 cytosolic and nuclear localisation was used for calculation of p65 translocation rates. (B) U2OS cells were pre-treated with DMSO, MW01 and irradiated with γ-IR. After 90 min cells were lysed and subjected to SDS-PAGE/WB and EMSA. (C) Cells were pre-treated with different concentrations of MW01 as indicated, treated with γ-IR (C) or etoposide (D) and subjected to WB or EMSA, respectively. LDH in (C) represents the loading control.
Nuclear or whole cell lysates were incubated with a ^32P-labeled NF-κB DNA-[…]
For electrophoresis, a current of 26 mA was applied for 2 h. After drying the gel onto a Whatman paper, signals were visualised on an autoradiography film (GE Healthcare) after overnight incubation at −80° C. in a radiography cassette. All work using radioactive substances were done at a monitored work space suitable for radioactive work.

[2] = system: ATM cytoplasmic translocation; test: Cytoplasmic accumulation of ATM, fractionation experiment (NE/CE) with WB, HepG2 cells; format: cell-based, human; details: 5 μM
Description: FIG. 7: Cytoplasmic accumulation of ATM. (A) Fractionation experiment with separated nuclear extracts (NE) and cytoplasmic extracts (CE). PARP1 and LDH staining served as loading and fractionation controls. Cells were pre-treated with DMSO or MW01 (5 μM) prior to irradiation and cell harvesting at indicated times. NE and CE were subjected to SDS-PAGE/WB procedure. (B) U2OS cells were seeded on cover slips 2 days before treatment. The cells were pre-treated with solvent DMSO alone or with MW01 prior to irradiation, cell fixation and subsequent immunofluorescence staining.
For the preparation of nuclear and cytoplasmic fractions, cells were lysed with buffer A (supplemented with 1 mM DTT, 10 mM NaF, 20 mM β-glycerophosphate, 250 nM NaVO3, complete protease inhibitor cocktail (Roche) and 50 nM calyculin A. Lysates were adjusted to a final concentration of 0.2% NP-40, vortexed for 10 s and spun down. The supernatant, representing the cytoplasmic extract (CE), was transferred into a new 1.5 ml reaction tube. The pellet was washed with buffer A, was resuspended with buffer C and shaken for 20 min at 4° C. Following 10 min of centrifugation at 14,000 rpm, the supernatant, representing the nuclear extract (NE), was transferred into a new reaction cap.

ATM = target: T1, ATM (Homo sapiens, UniProt Q13315); test: Enzymatic activity of ATM in γ-irradiated HepG2 cells, WB of ATM and substrate phosphorylation; format: cell-based
T1 construct: endogenous in cells; host or cells: HepG2
Description: FIG. 9: HepG2 cells were pre-incubated with DMSO, MW01 (5 μM) or the ATM inhibitor Ku55933 (10 μM) and irradiated. After 60 min cells were harvested and processed. Immunochemical staining of Western blotting membranes was done using indicated antibodies.

[3] = system: NF-κB target genes NFKBIA, TNFAIP3, CXCL8; test: qRT-PCR of NF-κB target genes after irradiation, U2OS cells; format: cell-based, human; details: 90 min after irradiation
Description: (§1) FIG. 14: (A) U2OS cells were pre-treated with different concentrations of olaparib prior to co-treatment with etoposide. Whole cell lysis was performed after 90 min and cleared lysates were used for WB with indicated antibodies. (B) U2OS cells were pre-treated with DMSO, olaparib or the ATM inhibitor Ku55933 and co-treated with etoposide. Cells were harvested after 45 min and subjected to SDS-PAGE/WB. Membranes were stained with the indicated antibodies. The experiment of (B) was performed simultaneously to the experiments of (A) and (E) to control functionality of olaparib in inhibiting PAR chain formation. (C) Densitometrical analyses of (A) and two further independent experiments done as shown in (A). (D) U2OS cells were pre-treated with the substances as indicated prior to irradiation. After 90 min mRNA was isolated, transcribed into cDNA and was used for expression analyses of the indicated genes using quantitative real-time PCR (qRT-PCR). (E) HepG2 cells were pre-treated with the PARP inhibitors olaparib, 3-AB and EB-47 prior to γ-irradiation. Cells were harvested after 15 and 90 min and subjected to SDS-PAGE/WB. Membranes were stained with the indicated antibodies. Error bars equal SEM.
To quantitate specific mRNA (messenger RNA) species in samples RNA was isolated, RNA concentration was measured and mRNA was transcribed into cDNA. The amount of mRNA transcripts of certain genes within a sample was quantified by employing gene specific primers and using a C-1000 Thermal cycler (Biorad). The expression of genes of interest was normalised against two or three reference genes (HRPT1, RPL_13a and B2M) using the CFX manager software. The fold induction of mRNA was calculated over untreated sample levels by the ΔΔ-Ct method.

PARP1 = PARP1 (Homo sapiens, UniProt P09874); test: PARP1 enzymatic activity, PAR chain formation, U2OS cells; format: cell-based; set-up: Experiment performed as described for (A), but using U2OS cells; endogenous in cells; host or cells: U2OS; details: γ-irradiation
Description: FIG. 10: (A) MEF cells were pre-treated with the indicated substances, irradiated and cell lysates were used for poly(ADP)-ribose probing using a specific antibody. (B) Experiment performed as described for (A), but using U2OS cells.
as §1, with “Membranes were stained with the indicated antibodies. Error bars equal SEM.” left out

[4] = HepG2, γ-irradiation, 60 min, MW01 5 μM, Ku55933 10 μM

T1 sequence (Q13315 whole entry): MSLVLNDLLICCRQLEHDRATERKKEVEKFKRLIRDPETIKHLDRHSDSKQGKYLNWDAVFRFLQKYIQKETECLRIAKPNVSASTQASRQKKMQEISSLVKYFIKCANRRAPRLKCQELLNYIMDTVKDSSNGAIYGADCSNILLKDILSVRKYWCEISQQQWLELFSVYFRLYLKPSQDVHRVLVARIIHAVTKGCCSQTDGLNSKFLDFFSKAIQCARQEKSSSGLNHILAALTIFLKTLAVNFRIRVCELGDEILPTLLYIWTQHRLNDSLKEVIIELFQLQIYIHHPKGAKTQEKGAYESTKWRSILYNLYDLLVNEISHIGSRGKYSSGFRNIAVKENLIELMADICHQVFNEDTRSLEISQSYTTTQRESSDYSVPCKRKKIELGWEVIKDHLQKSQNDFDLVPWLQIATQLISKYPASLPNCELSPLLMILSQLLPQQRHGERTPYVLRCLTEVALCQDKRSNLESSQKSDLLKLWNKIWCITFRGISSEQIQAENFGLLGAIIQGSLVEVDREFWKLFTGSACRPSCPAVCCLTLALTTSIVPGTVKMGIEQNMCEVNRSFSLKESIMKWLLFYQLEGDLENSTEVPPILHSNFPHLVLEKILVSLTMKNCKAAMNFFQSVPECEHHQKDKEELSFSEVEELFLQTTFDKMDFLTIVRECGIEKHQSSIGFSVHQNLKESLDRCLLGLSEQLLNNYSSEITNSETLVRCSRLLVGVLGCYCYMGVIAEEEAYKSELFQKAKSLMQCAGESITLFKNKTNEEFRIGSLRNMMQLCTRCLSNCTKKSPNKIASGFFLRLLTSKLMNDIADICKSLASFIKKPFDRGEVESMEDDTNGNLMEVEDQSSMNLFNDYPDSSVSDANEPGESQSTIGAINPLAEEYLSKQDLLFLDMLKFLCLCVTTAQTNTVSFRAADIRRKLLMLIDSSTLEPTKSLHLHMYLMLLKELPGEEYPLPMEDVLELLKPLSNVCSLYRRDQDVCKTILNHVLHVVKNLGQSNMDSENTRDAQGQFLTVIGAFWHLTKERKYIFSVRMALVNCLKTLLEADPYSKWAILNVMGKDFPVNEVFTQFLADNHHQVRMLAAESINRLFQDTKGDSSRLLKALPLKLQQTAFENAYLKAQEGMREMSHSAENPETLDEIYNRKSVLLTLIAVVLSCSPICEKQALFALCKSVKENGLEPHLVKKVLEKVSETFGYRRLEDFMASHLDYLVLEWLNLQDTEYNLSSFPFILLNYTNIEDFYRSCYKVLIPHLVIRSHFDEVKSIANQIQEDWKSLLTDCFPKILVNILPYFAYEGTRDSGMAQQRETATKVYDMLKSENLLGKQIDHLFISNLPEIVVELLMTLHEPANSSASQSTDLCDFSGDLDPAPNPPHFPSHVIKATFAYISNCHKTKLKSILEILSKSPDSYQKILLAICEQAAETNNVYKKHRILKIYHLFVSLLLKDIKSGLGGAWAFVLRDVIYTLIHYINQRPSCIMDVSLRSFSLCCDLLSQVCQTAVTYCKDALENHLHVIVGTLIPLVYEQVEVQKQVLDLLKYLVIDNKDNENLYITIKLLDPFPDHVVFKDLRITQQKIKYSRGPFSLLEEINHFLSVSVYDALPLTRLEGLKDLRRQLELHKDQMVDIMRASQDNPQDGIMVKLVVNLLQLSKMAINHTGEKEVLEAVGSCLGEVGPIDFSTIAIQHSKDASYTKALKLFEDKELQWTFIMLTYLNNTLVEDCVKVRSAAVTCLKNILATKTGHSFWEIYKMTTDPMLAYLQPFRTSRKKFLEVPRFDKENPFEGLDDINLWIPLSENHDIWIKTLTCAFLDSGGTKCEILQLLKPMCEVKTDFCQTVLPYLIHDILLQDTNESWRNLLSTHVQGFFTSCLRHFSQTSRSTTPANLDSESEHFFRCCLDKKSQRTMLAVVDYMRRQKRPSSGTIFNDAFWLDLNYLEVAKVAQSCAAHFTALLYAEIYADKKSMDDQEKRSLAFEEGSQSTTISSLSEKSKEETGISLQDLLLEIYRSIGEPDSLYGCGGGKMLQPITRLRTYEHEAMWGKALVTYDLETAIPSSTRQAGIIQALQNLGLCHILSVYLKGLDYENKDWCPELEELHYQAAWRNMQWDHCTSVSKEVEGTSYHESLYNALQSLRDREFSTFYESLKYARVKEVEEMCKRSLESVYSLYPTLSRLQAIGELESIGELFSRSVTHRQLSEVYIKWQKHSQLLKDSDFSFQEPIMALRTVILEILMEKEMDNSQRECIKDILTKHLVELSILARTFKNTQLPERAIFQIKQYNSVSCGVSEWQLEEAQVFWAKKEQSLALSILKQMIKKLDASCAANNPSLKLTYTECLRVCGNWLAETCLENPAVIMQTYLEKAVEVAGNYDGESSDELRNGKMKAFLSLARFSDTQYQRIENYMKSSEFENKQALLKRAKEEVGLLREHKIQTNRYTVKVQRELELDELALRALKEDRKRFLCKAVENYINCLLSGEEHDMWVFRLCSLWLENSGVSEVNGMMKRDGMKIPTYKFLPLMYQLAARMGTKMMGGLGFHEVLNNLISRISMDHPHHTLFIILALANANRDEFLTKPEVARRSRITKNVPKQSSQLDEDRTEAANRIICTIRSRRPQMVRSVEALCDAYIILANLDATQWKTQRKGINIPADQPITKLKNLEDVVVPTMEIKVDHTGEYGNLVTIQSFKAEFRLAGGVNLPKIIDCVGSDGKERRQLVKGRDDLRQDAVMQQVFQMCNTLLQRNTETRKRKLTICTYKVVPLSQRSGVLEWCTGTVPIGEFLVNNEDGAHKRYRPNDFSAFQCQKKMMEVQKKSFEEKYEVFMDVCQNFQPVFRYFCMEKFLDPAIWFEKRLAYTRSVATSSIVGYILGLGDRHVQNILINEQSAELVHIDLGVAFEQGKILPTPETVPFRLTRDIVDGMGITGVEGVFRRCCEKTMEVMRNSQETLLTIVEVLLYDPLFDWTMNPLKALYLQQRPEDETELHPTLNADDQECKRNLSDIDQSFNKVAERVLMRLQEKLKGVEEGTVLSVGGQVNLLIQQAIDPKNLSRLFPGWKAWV
Chain of PARP1 (P09874 whole entry): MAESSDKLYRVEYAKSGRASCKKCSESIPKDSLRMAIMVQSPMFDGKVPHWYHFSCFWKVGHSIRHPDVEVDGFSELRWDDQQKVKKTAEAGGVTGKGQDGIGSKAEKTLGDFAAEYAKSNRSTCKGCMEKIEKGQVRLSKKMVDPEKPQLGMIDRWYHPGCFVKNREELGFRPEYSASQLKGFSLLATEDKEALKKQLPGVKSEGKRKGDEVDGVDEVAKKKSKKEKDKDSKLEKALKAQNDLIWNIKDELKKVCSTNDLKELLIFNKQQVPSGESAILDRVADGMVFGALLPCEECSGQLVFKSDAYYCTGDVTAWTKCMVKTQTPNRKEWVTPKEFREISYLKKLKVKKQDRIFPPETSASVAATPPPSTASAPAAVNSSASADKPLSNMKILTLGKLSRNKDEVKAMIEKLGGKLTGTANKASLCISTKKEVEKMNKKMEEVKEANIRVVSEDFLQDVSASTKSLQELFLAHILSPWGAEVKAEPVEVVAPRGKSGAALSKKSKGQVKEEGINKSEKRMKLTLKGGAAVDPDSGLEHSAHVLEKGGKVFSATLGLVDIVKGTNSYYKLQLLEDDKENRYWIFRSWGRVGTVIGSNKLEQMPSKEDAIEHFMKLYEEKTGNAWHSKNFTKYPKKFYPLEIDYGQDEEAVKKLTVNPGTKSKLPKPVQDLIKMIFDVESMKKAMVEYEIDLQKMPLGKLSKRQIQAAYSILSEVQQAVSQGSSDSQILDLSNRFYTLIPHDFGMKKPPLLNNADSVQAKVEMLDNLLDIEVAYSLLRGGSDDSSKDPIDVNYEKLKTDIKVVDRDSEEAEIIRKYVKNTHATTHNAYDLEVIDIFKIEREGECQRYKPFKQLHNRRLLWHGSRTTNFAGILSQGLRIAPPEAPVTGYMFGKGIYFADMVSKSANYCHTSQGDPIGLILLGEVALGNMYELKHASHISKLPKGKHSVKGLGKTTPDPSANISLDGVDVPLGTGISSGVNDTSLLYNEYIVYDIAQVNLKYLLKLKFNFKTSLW

COc1ccc2c(c1OC)c(=O)n1c3ccc(O)cc3c3ccnc2c31 [MW01, 12-hydroxy-6,7-dimethoxy-8H-benzo[c]indolo[3,2,1-ij][1,5]naphthyridin-8-one]
etoposide-induced NF-κB DNA binding activity ([1]; etoposide): inhibited by MW01 pre-treatment in a concentration dependent manner | γ-IR-induced NF-κB DNA binding activity ([1]; γ-IR, 90 min, U2OS): inhibited the γ-IR-induced NF-κB DNA binding activity | accumulation of total ATM in the cytoplasm ([2]; 45 min after irradiation): inhibited the accumulation of ATM in the cytoplasm | detection of phosphorylated ATM in nuclear extracts ([2]; 45 min and 90 min after irradiation): did not affect | detection of activated ATM species in the cytoplasmic extracts ([2]; after irradiation): abolished | ATM auto-phosphorylation and phosphorylation of the ATM substrates p53 and KAP1 (ATM; [4]): no effects | phosphorylation state of p53bp1 (ATM; [4]): mild effects | enzymatic activity of ATM (ATM; conclusion from auto-phosphorylation and substrate phosphorylation): not affected | NFKBIA, TNFAIP3 and CXCL8 mRNA induction upon irradiation [3]: complete inhibition | PAR chain formation / PARP1 enzymatic activity (PARP1): did not interfere with activation of PARP1 enzymatic activity
